target: T1, USP28 (His-tagged USP28-FL-mammalian) (Homo sapiens, UniProt Q96RU2); assay: Ubiquitin-Rhodamine 110 Assay for USP28 Activity, Example A-1(a); format: biochemical; conditions: Ubiquitin-Rhodamine 110 assay, Example A-1(a); read-out: USP28 A-1(a) IC50 range
T1 construct: Expression of USP28 (1-1077)-TEV-6*His (pTT5 vector); made in house; host or cells: Expi293f cells (pTT5 vector)
T1 sequence (Q96RU2 1-1077): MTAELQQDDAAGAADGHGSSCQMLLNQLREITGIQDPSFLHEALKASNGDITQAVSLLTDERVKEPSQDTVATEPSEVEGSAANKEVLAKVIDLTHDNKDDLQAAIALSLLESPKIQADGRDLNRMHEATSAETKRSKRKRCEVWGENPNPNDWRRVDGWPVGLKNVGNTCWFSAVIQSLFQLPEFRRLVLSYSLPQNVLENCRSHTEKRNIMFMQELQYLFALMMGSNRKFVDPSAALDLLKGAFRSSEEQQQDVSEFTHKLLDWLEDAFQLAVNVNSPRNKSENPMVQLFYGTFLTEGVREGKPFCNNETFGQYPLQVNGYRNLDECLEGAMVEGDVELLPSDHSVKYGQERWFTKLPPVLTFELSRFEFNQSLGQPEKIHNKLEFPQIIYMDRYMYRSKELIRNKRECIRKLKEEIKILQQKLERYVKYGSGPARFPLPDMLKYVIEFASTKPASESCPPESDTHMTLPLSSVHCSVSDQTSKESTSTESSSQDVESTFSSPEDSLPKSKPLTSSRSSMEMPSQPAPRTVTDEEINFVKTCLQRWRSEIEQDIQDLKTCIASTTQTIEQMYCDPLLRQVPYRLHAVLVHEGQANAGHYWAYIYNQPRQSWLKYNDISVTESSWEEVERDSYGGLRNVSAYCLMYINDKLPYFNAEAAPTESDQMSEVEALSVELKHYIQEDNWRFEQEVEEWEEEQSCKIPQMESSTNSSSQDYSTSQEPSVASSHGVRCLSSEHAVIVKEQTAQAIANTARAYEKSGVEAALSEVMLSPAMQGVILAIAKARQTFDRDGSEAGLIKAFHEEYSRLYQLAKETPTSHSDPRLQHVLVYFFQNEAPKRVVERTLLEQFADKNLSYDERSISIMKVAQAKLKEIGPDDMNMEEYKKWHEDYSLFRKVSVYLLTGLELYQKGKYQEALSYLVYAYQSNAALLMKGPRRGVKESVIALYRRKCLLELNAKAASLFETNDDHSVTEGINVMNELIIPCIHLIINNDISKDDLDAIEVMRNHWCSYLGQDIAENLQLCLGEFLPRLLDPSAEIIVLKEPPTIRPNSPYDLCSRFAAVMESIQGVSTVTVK
Summary of the method: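 Full-length His-tagged human USP28 (1-1077, Expi293f-expressed), […], with 25 nM Ub-Rh110 (<<Km) in pH 8.0 Tris buffer with BME, BGG, Triton X-100. 10-point dilutions (25 μM-1.3 nM), 45 min at room temperature, citric acid stop, fluorescence 485/535 nm; IC50 by 4-parameter fit.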

| Compound | IC50 |
| --- | --- |
| Cc1ccc2c(N)c(C(=O)N[C@H]3COc4cc(N5CC[C@@H]6CNC[C@@H]65)ccc4C3)sc2n1 [Example 165, N-[(3R)-7-[(3aR,6aR)-octahydropyrrolo[2,3-c]pyrrol-1-yl]-3,4-dihydro-2H-1-benzopyran-3-yl]-3-amino-6-methylthieno[2,3-b]pyridine-2-carboxamide] | 1 to 50 nM |
| Cc1ccc2c(N)c(C(=O)N[C@H]3COc4cc(N5CC[C@H]6CNC[C@H]65)ccc4C3)sc2n1 [Example 166, N-[(3R)-7-[(3aS,6aS)-octahydropyrrolo[2,3-c]pyrrol-1-yl]-3,4-dihydro-2H-1-benzopyran-3-yl]-3-amino-6-methylthieno[2,3-b]pyridine-2-carboxamide] | 1 to 50 nM |
| Cc1ccc2c(N)c(C(=O)N[C@H]3COc4cc(N5C[C@H](N)[C@H](C(F)F)C5)ccc4C3)sc2n1 [Example 167, 3-amino-N-[(3R)-7-[(3R,4R)-3-amino-4-(difluoromethyl)pyrrolidin-1-yl]-3,4-dihydro-2H-1-benzopyran-3-yl]-6-methylthieno[2,3-b]pyridine-2-carboxamide] | 1 to 50 nM |
| Cc1ccc2c(N)c(C(=O)N[C@H]3COc4cc(N5C[C@@H](N)[C@@H](C(F)F)C5)ccc4C3)sc2n1 [Example 168, 3-amino-N-[(3R)-7-[(3S,4S)-3-amino-4-(difluoromethyl)pyrrolidin-1-yl]-3,4-dihydro-2H-1-benzopyran-3-yl]-6-methylthieno[2,3-b]pyridine-2-carboxamide] | 1 to 50 nM |
| Cc1ccc2c(N)c(C(=O)N[C@H]3COc4cc(N5CCNCC5)cc(F)c4C3)oc2n1 [Example 169, 3-amino-N-[(3R)-5-fluoro-7-(piperazin-1-yl)-3,4-dihydro-2H-1-benzopyran-3-yl]-6-methylfuro[2,3-b]pyridine-2-carboxamide] | 200 to 2000 nM |
| Cc1ccc2c(N)c(C(=O)N[C@H]3COc4cc(N5CC6CCC(C5)N6)cc(F)c4C3)oc2n1 [Example 170, 3-amino-N-[(3R)-7-{3,8-diazabicyclo[3.2.1]octan-3-yl}-5-fluoro-3,4-dihydro-2H-1-benzopyran-3-yl]-6-methylfuro[2,3-b]pyridine-2-carboxamide] | 200 to 2000 nM |
| Cc1ccc2c(N)c(C(=O)N[C@H]3CCc4cc(N5CC6CCC(C5)N6)ccc4C3)oc2n1 [Example 171, 3-amino-N-[(2S)-6-{3,8-diazabicyclo[3.2.1]octan-3-yl]-1,2,3,4-tetrahydronaphthalen-2-yl]-6-methylfuro[2,3-b]pyridine-2-carboxamide] | > 2000 nM |
| Cc1ccc2c(N)c(C(=O)N[C@H]3COc4c(F)c(N5CC6CCC(C5)N6)cc(F)c4C3)oc2n1 [Example 172, 3-amino-N-[(3R)-7-{3,8-diazabicyclo[3.2.1]octan-3-yl}-5,8-difluoro-3,4-dihydro-2H-1-benzopyran-3-yl]-6-methylfuro[2,3-b]pyridine-2-carboxamide] | 200 to 2000 nM |
| Cc1ccc2c(N)c(C(=O)N[C@H]3COc4nc(N5CC6CCC(C5)N6)ccc4C3)sc2n1 [Example 173, 3-amino-N-[(3R)-7-{3,8-diazabicyclo[3.2.1]octan-3-yl]-2H,3H,4H-pyrano[2,3-b]pyridin-3-yl]-6-methylthieno[2,3-b]pyridine-2-carboxamide] | 50 to 200 nM |
| CO[C@H]1CN(c2cc(F)c3c(c2C#N)OC[C@H](NC(=O)c2sc4nc(C)cnc4c2N)C3)C[C@@H]1N [Example 174, 7-amino-N-[(3R)-7-[(3S,4S)-3-amino-4-methoxypyrrolidin-1-yl]-8-cyano-5-fluoro-3,4-dihydro-2H-1-benzopyran-3-yl]-3-methylthieno[2,3-b]pyrazine-6-carboxamide] | 200 to 2000 nM |
| CO[C@H]1CN(c2cc(F)c3c(c2C#N)OC[C@H](NC(=O)c2sc4nc(C)ccc4c2N)C3)C[C@@H]1N [Example 175, 3-amino-N-[(3R)-7-[(3S,4S)-3-amino-4-methoxypyrrolidin-1-yl]-8-cyano-5-fluoro-3,4-dihydro-2H-1-benzopyran-3-yl]-6-methylthieno[2,3-b]pyridine-2-carboxamide] | 50 to 200 nM |
| CO[C@H]1CN(c2cc3c(cc2C#N)C[C@@H](NC(=O)c2sc4nc(C)cnc4c2N)CO3)C[C@@H]1N [Example 176, 7-amino-N-[(3R)-7-[(3S,4S)-3-amino-4-methoxypyrrolidin-1-yl]-6-cyano-3,4-dihydro-2H-1-benzopyran-3-yl]-3-methylthieno[2,3-b]pyrazine-6-carboxamide] | 1 to 50 nM |

Reference: US11524966B1 (Valo Early Discovery, Inc., priority 2017, dated 2022)
